Assay results reported in US12396461B2, “Functional peptides having antimicrobial activity against phytopathogenic microorganisms” (TOYOTA JIDOSHA KABUSHIKI KAISHA, priority 2019, dated 2025).
“And” between values parts separate entries of the source, which are not always exact repeats. Equal values may be shown once. Read-outs that look alike come from different tables or passages of the source.

Columns and labels:
Type in all cases: cell-based
Botrytis cinerea = test system: Botrytis cinerea; set-up: key to Plate antimicrobial activity test Botrytis cinerea, level: a case where hyphae extended to the entire well and no antimicrobial activity was found is defined as “level 0,”; a case where hyphae extended to less than a half of the well and thus the peptide inhibited the growth of the hyphae is defined as “level 1,”; a case where ungerminated spores were present and the peptide partially inhibited the germination is defined as “level 2,”; a case where all spores were ungerminated and the peptide completely inhibited the germination is defined as “level 3.”; details: 25° C. for 1 day or 2 days, microscopic observation
[1] = test system: Colletotrichum destructivum; set-up: key to Plate antimicrobial activity test Colletotrichum destructivum, level: a case where hyphae extended to the entire well and no antimicrobial activity was found is defined as “level 0,”; a case where hyphae extended to less than a half of the well and thus the peptide inhibited the growth of the hyphae is defined as “level 1,”; a case where ungerminated spores were present and the peptide partially inhibited the germination is defined as “level 2,”; a case where all spores were ungerminated and the peptide completely inhibited the germination is defined as “level 3.”; details: 25° C. for 1 day or 2 days, microscopic observation
[2] = test system: Colletotrichum orbiculare; set-up: key to Plate antimicrobial activity test Colletotrichum orbiculare, level: a case where hyphae extended to the entire well and no antimicrobial activity was found is defined as “level 0,”; a case where hyphae extended to less than a half of the well and thus the peptide inhibited the growth of the hyphae is defined as “level 1,”; a case where ungerminated spores were present and the peptide partially inhibited the germination is defined as “level 2,”; a case where all spores were ungerminated and the peptide completely inhibited the germination is defined as “level 3.”; details: 25° C. for 1 day or 2 days, microscopic observation
Fusarium oxysporum = test system: Fusarium oxysporum; set-up: key to Plate antimicrobial activity test Fusarium oxysporum, level: a case where hyphae extended to the entire well and no antimicrobial activity was found is defined as “level 0,”; a case where hyphae extended to less than a half of the well and thus the peptide inhibited the growth of the hyphae is defined as “level 1,”; a case where ungerminated spores were present and the peptide partially inhibited the germination is defined as “level 2,”; a case where all spores were ungerminated and the peptide completely inhibited the germination is defined as “level 3.”
Pyricularia oryzae = test system: Pyricularia oryzae; set-up: key to Plate antimicrobial activity test Pyricularia oryzae, level: a case where hyphae extended to the entire well and no antimicrobial activity was found is defined as “level 0,”; a case where hyphae extended to less than a half of the well and thus the peptide inhibited the growth of the hyphae is defined as “level 1,”; a case where ungerminated spores were present and the peptide partially inhibited the germination is defined as “level 2,”; a case where all spores were ungerminated and the peptide completely inhibited the germination is defined as “level 3.”; details: 25° C. for 1 day or 2 days, microscopic observation

Row | Substance | Plate antimicrobial activity test Botrytis cinerea, level (Botrytis cinerea; peptide 1 μM) | Plate antimicrobial activity test Botrytis cinerea, level (Botrytis cinerea; peptide 10 μM) | Plate antimicrobial activity test Botrytis cinerea, level (Botrytis cinerea; peptide 100 μM) | Plate antimicrobial activity test Colletotrichum destructivum, level ([1]; peptide 1 μM) | Plate antimicrobial activity test Colletotrichum destructivum, level ([1]; peptide 10 μM) | Plate antimicrobial activity test Colletotrichum destructivum, level ([1]; peptide 100 μM) | Plate antimicrobial activity test Colletotrichum orbiculare, level ([2]; peptide 1 μM) | Plate antimicrobial activity test Colletotrichum orbiculare, level ([2]; peptide 10 μM) | Plate antimicrobial activity test Colletotrichum orbiculare, level ([2]; peptide 100 μM) | Plate antimicrobial activity test Fusarium oxysporum, level (Fusarium oxysporum) | Plate antimicrobial activity test Pyricularia oryzae, level (Pyricularia oryzae; peptide 1 μM) | Plate antimicrobial activity test Pyricularia oryzae, level (Pyricularia oryzae; peptide 10 μM) | Plate antimicrobial activity test Pyricularia oryzae, level (Pyricularia oryzae; peptide 100 μM)
1 | EELMVVAEEEAYRRVRGGMGW (listed as Solanum lycopersicum) [TsORF6-3, chemically synthesized region of TsORF6] | 0 | 0 | 0 | 0 | 0 | 0 | 0 | 0 | 0 | 0 | 0 | 0 | 0
2 | IVVKT (listed as Solanum lycopersicum) [TsORF6-1-5aa-5, partial peptide of TsORF6-1, 5 amino acid residues] | 0 | 0 | 0 | 0 | 0 | 0 | 0 | 0 | 0 | 0 | 0 | 0 | 0
3 | IVVKTKVK (listed as Solanum lycopersicum) [TsORF6-1-8aa-5, partial peptide of TsORF6-1, 8 amino acid residues] | 0 | 0 | 0 | 0 | 0 | 0 | 0 | 0 | 0 | 0 | 0 | 0 | 0
4 | KKVAKMMV (listed as Solanum lycopersicum) [TsORF6-1-8aa-14, partial peptide of TsORF6-1, 8 amino acid residues] | 0 | 0 | 0 | 0 | 0 | 0 | 0 | 0 | 0 | 0 | 0 | 0 | 0
5 | KMMVKEDEKNKRVITMKEELMV (listed as Solanum lycopersicum) [TsORF6-2, chemically synthesized region of TsORF6] | 0 | 0 | 2 | 0 | 0 | 0 | 0 | 0 | 0 | 1 and 0 | 0 | 0 | 0
